Data from PubChem BioAssay AID623873 (Sanford-Burnham Center for Chemical Genomics, 2012).
Active and inactive are the calls of the source.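 Rule for the calls: active = IC50 at or below 20 µM in the dose response; inactive = the rest.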

system: HL-1 cardiomyocytes, 2-deoxyglucose injury, ATP luminescence, 2 h; assay: protection of HL-1 cells from ATP loss, SAR follow-up, 2-deoxyglucose, ATP luminescence (AID 623873)

Q: For `COCCNC(=O)C(c1ccc(O)cc1)N(C(=O)c1snc(C(N)=O)c1N)c1ccccc1F` (configuration not stated), which IC50 is on record?
A: > 79 µM (inactive)

Q: Which IC50 does the source give for `Cc1ccc(NC(=O)CN(C)C(=O)c2cc(-c3cccs3)nn2-c2ccccc2)cc1` here?
A: > 79 µM (inactive)

Q: With `COc1ccc(-c2cc(C(=O)N(C)Cc3ccc(OC)c(OC)c3OC)c3ccccc3n2)cc1OC` as the compound, how does the IC50 read?
A: 2.9 µM

Q: How did the IC50 turn out when `O=C(C(=O)N1CCCC1)c1c(-c2ccccc2)[nH]c2ccccc12` was run?
A: > 79 µM (inactive)

Q: How did the IC50 turn out when `COc1ccc(-n2cc(-c3ccccc3)c3c(N4CCCCC4)ncnc32)cc1` was run?
A: > 79 µM (inactive)

Q: `Cc1ccc2cc(CN(C)S(=O)(=O)c3ccc(F)cc3)c(=O)[nH]c2c1` was tested. Which IC50 did it give?
A: > 79 µM (inactive)

Q: `COc1ccc2c(c1OC)C(=O)N1c3ccccc3C(=O)N(c3ccc(F)cc3)C21` (configuration not stated) was tested. Which IC50 did it give?
A: 3.4 µM

Q: `COc1ccc2cc(C(=O)N3CCN(S(=O)(=O)c4cc(C)ccc4C)CC3)c(C)nc2c1` was tested. Which IC50 did it give?
A: > 79 µM (inactive)

Q: For `Cc1ccc(S(=O)(=O)N2CCN(C(=O)c3cc(=O)[nH]c4ccccc34)CC2)cc1C`, which IC50 is on record?
A: > 79 µM (inactive)

Q: For `CCN(CC)C(=O)C(=O)c1c(-c2ccccc2)[nH]c2ccccc12`, which IC50 is on record?
A: > 79 µM (inactive)

Q: Which IC50 does the source give for `COc1ccc(N2C(=O)c3ccccc3N3C(=O)c4c(ccc(OC)c4OC)C23)cc1` (configuration not stated) here?
A: 1.47 µM

Q: With `O=c1[nH]c2ccccc2cc1CN(Cc1ccco1)S(=O)(=O)c1ccc(F)cc1` as the compound, how does the IC50 read?
A: > 79 µM (inactive)

Q: How did the IC50 turn out when `COc1ccc2c(c1OC)C(=O)N1c3ccccc3C(=O)N(c3ccccc3C)C21` (configuration not stated) was run?
A: 11.7 µM (inactive)

Q: With `CCN(CC(=O)Nc1ccc(OC)cc1)C(=O)c1cc(-c2cccs2)nn1-c1ccccc1` as the compound, how does the IC50 read?
A: 2.27 µM

Q: How did the IC50 turn out when `CCN(CC)S(=O)(=O)c1cc(C(=O)N2CCN(Cc3cccc4cccnc34)CC2)ccc1C` was run?
A: > 79 µM (inactive)

Q: With `CCCn1c(SC(C(=O)Nc2cccc(OC)c2)c2ccccc2)nc2ccccc2c1=O` (configuration not stated) as the compound, how does the IC50 read?
A: > 79 µM (inactive)

Q: How did the IC50 turn out when `CCCN(CC(=O)Nc1ccccc1OC)C(=O)c1cc(-c2cccs2)nn1-c1ccccc1` was run?
A: > 79 µM (inactive)

Q: For `Cc1ccccc1N(C(=O)c1snc(C(N)=O)c1N)C(C(=O)NCc1ccc(F)cc1)c1ccc(O)cc1` (configuration not stated), which IC50 is on record?
A: > 79 µM (inactive)

Q: How did the IC50 turn out when `COc1ccc2cc(C(=O)N3CCN(S(=O)(=O)c4ccc(C)cc4C)CC3)c(C)nc2c1` was run?
A: > 79 µM (inactive)

Q: With `Cc1ccc(-c2[nH]c3ccccc3c2C(=O)C(=O)N(C)C)cc1` as the compound, how does the IC50 read?
A: > 79 µM (inactive)

Q: With `COc1cccc(NC(=O)C(Sc2nc3ccccc3c(=O)n2CC(C)C)c2ccccc2)c1` (configuration not stated) as the compound, how does the IC50 read?
A: > 79 µM (inactive)

Q: Which IC50 does the source give for `O=C(C(=O)N1CCCCC1)c1c(-c2ccccc2)[nH]c2ccccc12` here?
A: > 79 µM (inactive)

Q: For `COc1ccccc1N1C(=O)c2ccccc2N2C(=O)c3c(ccc(OC)c3OC)C12` (configuration not stated), which IC50 is on record?
A: 29.4 µM (inactive)

Q: Which IC50 does the source give for `NC(=O)c1nsc(C(=O)N(c2cccc(F)c2)C(C(=O)NC2CCCC2)c2ccc(O)cc2)c1N` (configuration not stated) here?
A: > 79 µM (inactive)

Q: Which IC50 does the source give for `COc1cccc(CN(C)C(=O)c2cc(-c3ccccc3)nc3ccc(C)cc23)c1OC` here?
A: > 79 µM (inactive)

Q: `COc1ccc(-n2cc(-c3ccccc3)c3c(N4CCCC4)ncnc32)cc1` was tested. Which IC50 did it give?
A: > 79 µM (inactive)

Q: How did the IC50 turn out when `NC(=O)c1nsc(C(=O)N(Cc2ccccc2)C(C(=O)NCc2ccc(F)cc2)c2ccc(O)cc2)c1N` (configuration not stated) was run?
A: > 79 µM (inactive)

Q: `COc1ccc(-c2cc(C(=O)N(C)C)c3ccccc3n2)cc1OC` was tested. Which IC50 did it give?
A: 71.9 µM (inactive)

Q: Which IC50 does the source give for `COc1ccc(NC(=O)CN(C)C(=O)c2cc(-c3cccs3)nn2-c2ccccc2)cc1` here?
A: > 79 µM (inactive)

Q: For `Cc1ccc(S(=O)(=O)N(Cc2cccnc2)Cc2cc3ccccc3[nH]c2=O)cc1`, which IC50 is on record?
A: > 79 µM (inactive)

Q: How did the IC50 turn out when `Cc1ccc(C)c(S(=O)(=O)N2CCN(C(=O)c3cc4cc(C)ccc4nc3C)CC2)c1` was run?
A: > 79 µM (inactive)

Q: How did the IC50 turn out when `COc1ccc2c(c1OC)C(=O)N1c3ccccc3C(=O)N(c3cccc(Br)c3)C21` (configuration not stated) was run?
A: 0.684 µM

Q: For `O=C1c2ccccc2N2C(=O)c3ccccc3[C@H]2N1c1ccccc1`, which IC50 is on record?
A: > 79 µM (inactive)

Q: Which IC50 does the source give for `COc1ccc2c(=O)c(C(=O)N3CCN(S(=O)(=O)c4c(C)cc(C)cc4C)CC3)c[nH]c2c1` here?
A: > 79 µM (inactive)

Q: How did the IC50 turn out when `COc1cccc(CN(C)C(=O)c2cc(-c3ccc(OC)c(OC)c3)nc3ccccc23)c1` was run?
A: 5.52 µM

Q: Which IC50 does the source give for `COc1cccc(NC(=O)CN(C)C(=O)c2cc(-c3cccs3)nn2-c2ccccc2)c1` here?
A: > 79 µM (inactive)

Q: For `COc1ccc(-c2cc(C(=O)NCc3ccco3)c3ccccc3n2)cc1OC`, which IC50 is on record?
A: 20.8 µM (inactive)

Q: `COc1ccc(-n2cc(-c3ccccc3)c3c(NCc4ccccc4)ncnc32)cc1` was tested. Which IC50 did it give?
A: > 79 µM (inactive)

Q: `COCCn1c(SC(C(=O)Nc2cc(C)ccc2C)c2ccccc2)nc2ccccc2c1=O` (configuration not stated) was tested. Which IC50 did it give?
A: > 79 µM (inactive)

Q: With `COc1ccc(S(=O)(=O)N(Cc2cccnc2)Cc2cc3ccccc3[nH]c2=O)cc1` as the compound, how does the IC50 read?
A: > 79 µM (inactive)

Q: `COc1cc(-c2cc(C(=O)Nc3cccc(C(C)=O)c3)c3ccccc3n2)cc(OC)c1OC` was tested. Which IC50 did it give?
A: 1.76 µM

Q: With `COc1ccc(-c2cc(C(=O)NCc3ccccc3)c3ccccc3n2)cc1OC` as the compound, how does the IC50 read?
A: > 79 µM (inactive)
